Data set [1] concerns MCF-7 breast cancer cells. Briefly: SRB cytotoxicity assay, MCF-7. Type of data set: cell-based. The following applies: Homo sapiens, MCF7; SRB assay, 96 h incubation, mean ± SD; read-out: IC50 MCF-7. The protocol: (§1) All of the compounds were dissolved in dimethyl sulfoxide (DMSO) to achieve a 20 mM stock solution. Cells were seeded in cell culture flasks 24 h before treatment. The treatment was performed for 24 h.
(§2) The cytotoxicity of the drugs was determined in 2D tumor models using sulforhodamine B (SRB) assays. Treatment started 24 h after seeding the tumor cells in 96-well plates as previously described.
For orientation: The SRB assay estimates cell density from bound dye.

In data set [2] the test system is A2780 ovarian cancer cells. As to the kind of experiment: SRB cytotoxicity assay, A2780. The following applies: Homo sapiens, A2780; SRB assay, 96 h incubation, mean ± SD; read-out: IC50 A2780. The class given is cell-based. The protocol: as §1, §2
In data set [3] the test system is A375 melanoma cells. As to the kind of experiment: SRB cytotoxicity assay, A375. The class given is cell-based. The following applies: Homo sapiens, A-375; SRB assay, 96 h incubation, mean ± SD; read-out: IC50 A375. The protocol:
as §1, §2

The subject of data set [4] is Hs578T spheroids. Also on record: method as in PMID 36780832. The following applies: Hs578T versus MDA-MB-231 spheroids; cited from earlier work.
Data set [5] addresses hypoxia-induced hCA IX (Homo sapiens, UniProt Q16790). As to the kind of experiment: Cell-based hCA IX inhibition, Wilbur-Anderson method, hypoxic Hs578T cells. The following applies: 20 µM, 3 h, vs untreated hypoxic cells.
Protocol: In a cell-based system, the changes of extracellular pH due to activity of hypoxia-induced hCA IX were determined. Hydration of CO2 to hydrogen carbonate and a proton catalyzed by extracellular hCA IX are the basis for detecting changes in pH depending on activity of hCA IX. Breast cancer cells (Hs578T) were cultured under hypoxic conditions for induction of hCA IX expression and afterwards treated with 20 µM of each substance for 3 h. Normoxic and hypoxic cells without treatment were used as reference. Cells were washed, scraped down, and resuspended in ice-cold isotonic buffer.
Data set [6] concerns the target recombinant human carbonic anhydrase IX (Homo sapiens, UniProt Q16790). As to the kind of experiment: hCA IX esterase assay with p-nitrophenyl acetate.
Protocol: In this measurement, the enzymatically catalyzed hydrolysis of p-nitrophenyl acetate to p-nitrophenol was investigated. […] This was followed by measurement of the v-S-characteristics with inhibitor. […] For each run, 2 experimental series (biological replicate) were prepared simultaneously and measured for 10 min at a measurement interval of 8 s, also as a two-fold determination (technical replicate). […] The resulting reaction velocities, calculated from a calibration curve with p-nitrophenole under the same conditions, were plotted against the substrate concentration. The kinetic evaluation for competitive inhibition was then performed with the program GraphPad Prism.
In data set [7] the test system is MDA-MB-231 spheroids. As to the kind of experiment: Spheroid cytotoxicity assay (luciferase), MDA-MB-231. The class given is cell-based, human. The following applies: Homo sapiens, MDA-MB-231, 168 h; 7 days of treatment, 3 independent experiments; read-out: IC50 MDA-MB-231 spheroids. The procedure: (§3) To determine cytotoxicity in the 3D tumor models, spheroid cytotoxicity assays were performed as previously described. […] For generation of single tumor spheroids, tumor cells resuspended in culture medium were seeded into 96-well plates, which were coated before with 0.7% agarose (SeaKem® GTG™ Agarose, Lonza, Basel, Switzerland). After the formation of spheroids (48 h), they were treated with serial dilutions of compounds. Measurements of luciferase activity were performed on day 7, after supplementation with D-luciferin (Perkin Elmer, Rodgau, Germany), on a Tecan Spark microplate reader (Tecan, Männedorf, Switzerland). Generation of dose-response curves and calculation of IC50 values including standard deviations were accomplished using GraphPad Prism8.
(§4) Since the tumor cells stably express luciferase, analysis of spheroid growth and response to therapy is accomplished by measurement of bioluminescent signal intensity.

For data set [8], the system named is Hs578T spheroids. Briefly: Spheroid cytotoxicity assay (luciferase), Hs578T. The following applies: Homo sapiens, Hs-578T, 168 h; 7 days of treatment, 3 independent experiments; read-out: IC50 Hs578T spheroids. Type of data set: cell-based, human. The procedure:
as §3, §4

With `C=C(C)C1CCC2(C(=O)NCCOCCOC(=O)CCC(=O)O)CCC3(C)C(CCC4C5(C)CCC(OC(C)=O)C(C)(C)C5CCC43C)C12` (centres unmarked) [Compound 11], the melting point (usually the temperature of the solid-liquid transition) fell in the range of 78 to 82 °C. The IC50 (in general, the concentration that gives 50% inhibition) in data set [1] worked out at 7.3 ± 0.4 µM. Also, in [2], the IC50 is 12.3 ± 1.5 µM. Besides, in data set [3], the IC50 was 10.5 ± 0.6 µM.
On to `CC(=O)O[C@H]1C(=O)[C@@]2(C)[C@H]([C@H](OC(=O)c3ccccc3)[C@]3(O)C[C@H](OC(=O)[C@H](O)[C@@H](NC(=O)c4ccccc4)c4ccccc4)C(C)=C1C3(C)C)[C@]1(OC(C)=O)CO[C@@H]1C[C@@H]2O` [paclitaxel], for which, in data set [4], the “resistance of Hs578T spheroids” value is 20 fold.
For the compound `C=C(C)[C@@H]1CC[C@]2(C(=O)O)CC[C@]3(C)[C@H](CC[C@@H]4[C@@]5(C)CC[C@H](O)C(C)(C)[C@@H]5CC[C@]43C)[C@@H]12` [BA, betulinic acid], in data set [5], the “inhibition of hypoxia-induced hCA IX activity (relative WAU)” value was “no potential to inhibit hCA IX activity”. Also, the IC50 is 13 ± 1 µM in data set [1], 12.5 ± 1.8 µM in [2] and 13.1 ± 0.9 µM in data set [3]. In data set [6] (p-nitrophenyl acetate substrate, competitive inhibition, pH 7.5, 20 °C), the “Ki Values of hCA IX” value is reported as “n.i”.
Compound `C=C(C)C1CCC2(C(=O)NCCOCCO)CCC3(C)C(CCC4C5(C)CCC(OC(C)=O)C(C)(C)C5CCC43C)C12` (centres unmarked) [Compound 10] showed a melting point of 205 °C. The IC50 in data set [1] is 5.9 ± 0.2 µM. The IC50 in data set [2] came out at 9.5 ± 0.9 µM. For the same compound, the IC50 in [3] was found to be 4.3 ± 0.2 µM.
On to `COc1cccc2c1C(=O)c1c(O)c3c(c(O)c1C2=O)C[C@@](O)(C(=O)CO)C[C@@H]3O[C@H]1C[C@H](N)[C@H](O)[C@H](C)O1` [doxorubicin], for which, in data set [4], the “resistance of Hs578T spheroids” value is on record as 60 fold.
As for `C=C(C)C1CCC2(C(=O)NCCOCCOC(=O)CCC(=O)Nc3nnc(S(N)(=O)=O)s3)CCC3(C)C(CCC4C5(C)CCC(OC(C)=O)C(C)(C)C5CCC43C)C12` (centres unmarked) [Compound 12], the melting point is 92 to 94 °C. Besides, in data set [7], the IC50 was over 100 µM. Further, the IC50 in [8] is over 100 µM. Further, the IC50 in data set [1] is over 100 µM. The “reduction of hCA IX activity” value in [6] (10 µM of the compound, p-nitrophenyl acetate) was found to be 40%. Further, the remaining activity at 10 µM in data set [6] (read-out: residual activity (r.a.) of hCA IX) turned out to be 60%. The IC50 in data set [2] was 35.1 ± 3.4 µM. Besides, the IC50 in data set [3] is over 100 µM.

Values taken from paper PMC10974084, “Combination of Betulinic Acid Fragments and Carbonic Anhydrase Inhibitors—A New Drug Targeting Approach” (Pharmaceutics, 2024).
